Data on one molecule can be found in US20140275156A1, “FLAVONOID COMPOUNDS, AND METHODS OF USE THEREOF” (NEUPROTECT PTY LTD, priority 2011, published 2014).

The test system of one assay is H9C2 rat myoblasts. The assay can be described thus: Cytoprotection in H9C2 myoblasts. Format: cell-based. As for the experimental part: (§1) Cardiac myocytes were plated on collagen-coated dishes in serum containing media Dulbecco's modified Eagle's medium/Medium 199 (4:1 v/v) containing 10% (v/v) horse serum, 5% (v/v) fetal calf serum, and penicillin/streptomycin (100 units/ml). Murine skeletal myoblast (C2C12) or rat cardiac myoblasts (H9C2) were maintained in DMEM supplemented with 10% (v/v) fetal calf serum and 100 U/ml penicillin-streptomycin. Cells were incubated overnight at 37° C. in a 5% CO2 incubator prior to the experiment. Cells were pre-treated with flavanols for 30 min prior to stress treatments. Following pre-treatment, cells were stimulated by the addition of H2O2 (1 mM), sorbitol (0.5 M) or arsenite (300 μM). DMSO (0.1% v/v) was used as a vehicle control. Following treatment, cells were assessed for viability or protein lysates prepared for immunoblot analysis.
(§2) To define the protective and kinase modulatory properties of the compounds of the certain embodiments, their effects in greater detail in vitro. The protection of cultured C2C12 murine myoblasts was evaluated against detrimental stress stimuli using an XTT assay of cell viability. In a time-course of oxidative damage, it was observed that 2 h treatment of H2O2 (0.5 or 1.0 mM) reduced myoblast viability to 38.5+2.0% and 31.9+0.8%, respectively, compared with control cells without H2O2 treatment.

Assay [1] has as its system primary neonatal rat cardiac myocytes. Put plainly: Cytoprotection in primary cardiac myocytes. It counts as cell-based. As for the experimental part:
as §1, §2

The conditions of assay [2]: in vitro studies (Wang et al., British Journal of Pharmacology (2004) 142, 443-452); cited from earlier work.

Regarding `O=c1c(O)c(-c2ccc(O)c(O)c2)oc2ccccc12` [DiOHF, 3′,4′-dihydroxy flavonol], the protection against stress result (with H9C2 rat myoblasts; in assay [1]) was “similarly protective” in each case. Moreover, the “infarct and injury associated with myocardial ischaemia and reperfusion” value in assay [2] is “reduce infarct and injury”.
